Laboratory results published in the NIST ThermoML archive (doi:10.1021/je900468u).

How the values were obtained:
[1] = refractive index (Na D-line) (dimensionless); xn = mol fraction of the nth substance listed; details: 101 kPa, Liquid, Standard Abbe refractometry
[2] = xn = mol fraction of the nth substance listed; details: 101 kPa, Liquid; for speed of sound: Pulse-echo method

C1CCCCC1 [cyclohexane] + c1ccccc1
Details | mass density, [2] [kg/m3] | refractive index, [1] | speed of sound, [2] [m/s]
283.15 K, x1 = 0.047 | 882.7 | 1.50275 | 1364
283.15 K, x1 = 0.0984 | 875.6 | 1.49741 | 1358
283.15 K, x1 = 0.1978 | 862.4 | 1.48772 | 1346
283.15 K, x1 = 0.2968 | 850.4 | 1.47886 | 1338
283.15 K, x1 = 0.3929 | 839.4 | 1.47071 | 1331
283.15 K, x1 = 0.4996 | 828.3 | 1.46247 | 1326
283.15 K, x1 = 0.6003 | 818.8 | 1.45532 | 1323
283.15 K, x1 = 0.7022 | 809.9 | 1.44865 | 1322
283.15 K, x1 = 0.7963 | 802.3 | 1.44324 | 1322
283.15 K, x1 = 0.8954 | 794.9 | 1.43781 | 1325
283.15 K, x1 = 0.9501 | 791.2 | 1.43453 | 1327
283.15 K, x1 = 1 | 787.8 | 1.43193 | 1329
298.15 K, x1 = 0.047 | 867.1 | 1.49298 | 1293
298.15 K, x1 = 0.0984 | 859.9 | 1.48771 | 1286
298.15 K, x1 = 0.1978 | 847 | 1.47808 | 1275
298.15 K, x1 = 0.2968 | 835.2 | 1.46965 | 1266
298.15 K, x1 = 0.3929 | 824.5 | 1.46157 | 1259
298.15 K, x1 = 0.4996 | 813.6 | 1.45354 | 1254
298.15 K, x1 = 0.6003 | 804.2 | 1.44654 | 1251
298.15 K, x1 = 0.7022 | 795.5 | 1.44001 | 1249
298.15 K, x1 = 0.7963 | 788 | 1.43431 | 1249
298.15 K, x1 = 0.8954 | 780.8 | 1.42891 | 1250
298.15 K, x1 = 0.9501 | 777.2 | 1.42611 | 1252
298.15 K, x1 = 1 | 773.9 | 1.4236 | 1255

C1CCCCCCC1 [cyclooctane] + CCc1ccccc1
298.15 K
Details | mass density, [2] [kg/m3] | refractive index, [1] | speed of sound, [2] [m/s]
x1 = 0.0465 | 860.4 | 1.49082 | 1321
x1 = 0.0962 | 858.3 | 1.48858 | 1322
x1 = 0.1961 | 854.1 | 1.48405 | 1327
x1 = 0.2944 | 850.3 | 1.47983 | 1332
x1 = 0.3975 | 846.6 | 1.47562 | 1339
x1 = 0.4959 | 843.4 | 1.47185 | 1346
x1 = 0.5935 | 840.4 | 1.46828 | 1353
x1 = 0.6929 | 837.6 | 1.46489 | 1361
x1 = 0.7954 | 835.2 | 1.4616 | 1370
x1 = 0.8899 | 833.2 | 1.45885 | 1379
x1 = 0.9497 | 832.1 | 1.45726 | 1385
x1 = 1 | 831.5 | 1.45598 | 1391
